In patent US9644037B2, “Antibodies that specifically bind ataxia telangiectasia-mutated and RAD3-related kinase phosphorylated at position 1989 and their use” (THE UNITED STATES OF AMERICA, AS REPRESENTED BY THE …, priority 2013, dated 2017):

What was measured:
pT1989-ATR = test: Immunoblot of ATR-Chk1 response to Top1 inhibitors with or without VE-821: ATR; assay type: cell-based; details: for phosphorylation of ATR (threonine 1989): Top1 inhibitor treatment, 0, 4, 8, 18 h after removal
Protocol: (§1) For these studies, auto-phosphorylation of ATR on threonine 1989, a DNA damage activation site (Nam et al., J Biol Chem 2011; 286(33):28707-14; Liu et al., Molecular cell 2011; 43(2):192-202), was determined, as well as Chk1 phosphorylation on serine 345, which is mediated by ATR. Histone H2AX phosphorylation was also determined on serine 139 (γH2AX), a validated pharmacodynamic biomarker for DNA damage and apoptosis (Bonner et al., Nat Rev Cancer 2008; 8(12):957-67; Kinders et al., Clin Cancer Res 2010; 16(22):5447-57; Solier et al., Mol Cell Biol 2009; 29(1):68-82).
(§2) Briefly, cell lysates were electrophoresed on 4-20% Tris-glycine or 3-8% Tris-acetate polyacrylamide gels, and transferred onto nitrocellulose membranes. Antibodies against GAPDH, ATR and pS345-Chk1 were obtained from Cell Signaling Technologies, γH2AX and pT68-Chk2 from Abcam and Top1 from BD Biosciences. The antibody against pT1989-ATR is disclosed above. After incubation with secondary antibody, signals were detected by enhanced chemiluminescence (Pierce).

γH2AX = test: Immunoblot of ATR-Chk1 response to Top1 inhibitors with or without VE-821: γH2AX; assay type: cell-based; details: for phosphorylation of H2AX (γH2AX): Top1 inhibitor treatment
Protocol: as §1, §2

pT68-Chk2 = test: Immunoblot of ATR-Chk1 response to Top1 inhibitors with or without VE-821: Chk2; assay type: cell-based; details: for phosphorylation of Chk2 (threonine 68): Top1 inhibitor treatment
Protocol: as §2, with “[…]-Chk1” for “pS345-Chk1”, “[…]-Chk2” for “pT68-Chk2”, “[…]-ATR” for “pT1989-ATR”

pS345-Chk1 = test: Immunoblot of ATR-Chk1 response to Top1 inhibitors with or without VE-821: Chk1; assay type: cell-based; details: for phosphorylation of Chk1 (serine 345): Top1 inhibitor treatment
Protocol: as §1, §2

phospho-ATR (pT1989) = test: Western blot of phospho-ATR (pT1989) in drug-treated cells; assay type: cell-based, human
Protocol: Cell growth was monitored 2-3 weeks after fusion. Hybridoma supernatants were screened by standard colorimetric ELISA against BSA-conjugated peptides as described in section C. The screening process consisted of a Primary screen on 40 plates (using bleed 2 of E5571 at 1:100 dilution as a Positive control) clones (44) with O.D. greater than 0.5 were considered putatively positive and were further expanded to 24-well plate. Confirmatory screen was performed and 6 clones were confirmed positive against phospho-specific peptides (Table 4). Additional screening was performed by ELISA using the same assay as for bleed screening (FIG. 5). Western blotting was done on selected clones #7, 27 and 35 for subcloning (FIG. 6). DLD-1 cells and DLD-1 Seckel cells with and without gemcitabine treatment (100 nM for 4 h) were lysed with cell extraction buffer (Invitrogen, catalog # FNN0011). Lysates were run on NUPAGE® NOVEX® 3-8% gels (Invitrogen, catalog # EA0378BOX) and transferred to nitrocellulose membranes (Invitrogen catalog # IB3010-01) using the IBLOT® apparatus from Invitrogen. Blots were blocked with Licor ODYSSEY® blocking buffer (LiCor, catalog #927-40010) and incubated overnight with hybridoma supernatants (1:30). Blots were then washed with PBS-T (0.05% TWEEN®) and incubated with Licor goat anti-rabbit IR-680 antibody for 1 h at room temperature. Blots were then washed with phosphate-buffered saline with 0.05% TWEEN®-20 (PBS-T) and scanned at 700 nm on Licor ODYSSEY® scanner.
Details for lysate preparation and Western blotting are given in Example I, section E. The antibody detected a single band at about 250 kDa consistent with the predicted molecular weight (MW) for ATR. The antibody also detected an increase in phospho-ATR (pT1989) upon gemcitabine (SIGMA) treatment which is known to increase ATR activity (Mol. Pharmacol. (2005), 68, 1636-1644). Finally, an isogenic pair of DLD-1 cells was used.
Cells were treated for 4 hours with either vehicle (DMSO, 0.01%), 150 nM Gemcitabine (Sigma), 1 uM ATR inhibitor VE-821 or combination of drugs. The antibody detected a single band at about 250 kDa consistent with the predicted MW for ATR. The antibody also detected an increase in phospho-ATR (pT1989) upon Gemcitabine treatment, which is known to increase ATR activity (Molecular Pharmacology (2005) 68, 1636-1644). […] Lysates were prepared in buffer as follows: 0.94 ml RIPA buffer, 40 μl Protease Inhibitor Cocktail (25× stock, Roche Cat#11697498001), 10 μl Phosphatase Inhibitor (Roche Cat#04906845001) and 10 μl PMSF (Sigma cat#93482). Lysates were sonicated prior to use. Lysates were run on 3-8% Tris-Acetate gels from NOVEX® (Invitrogen, Cat# EA0378BOX) and transferred to nitrocellulose membranes using the IBLOT® transfer apparatus, program setting P3, 20V, 13 min. Blots were blocked with Licor ODYSSEY® blocking buffer and incubated overnight with Clone 7 hybridoma supernatant (1:30). B lots were then washed with PBS-T (0.05% Tween) and incubated with Licor goat anti-rabbit IR-680 antibody for 1 h at room temperature. […]
For these studies, DLD-1 parental and DLD-1 Seckel (Horizon) cells were treated with gemcitabine for 4 hours. Clone 7A7 detected ATR in the parental DLD-1 cell lysate by Western blotting and detects an increase in pT1989-ATR with gemcitabine treatment as expected. In contrast, the level of pT-1989 detected by clone 7A7 was much lower in the DLD-1 Seckel cells which have suppressed ATR expression.

[1] = test system: ATR-pT1989 foci in A2780 xenografts; test: pATR T1989 immunofluorescence assay in A2780 xenografts; assay type: in vivo, mice; details: 1.2 or 6.0 mg/kg intraperitoneally; 4, 7 and 24 hours; dose and time dependent
Protocol: In vivo studies were performed. A2780 xenografts were evaluated in mice treated with 1.2 mg/kg cisplatin or 6.0 mg/kg cisplatin for 4, 7 and 24 hours. […] The following methods were used in these studies:
Xenograft Samples and In Vivo Quantitation: Athymic nu/nu mice were implanted with A2780 cells as previously described (Kinders et al., Clin Cancer Res 2010:16(22):5447-57). Xenograft quadrants were collected and flash frozen from mice following exposure to vehicle (0.9% saline) or various doses (1.2, 6.0 mg/kg) of cisplatin administered intraperitoneally. The samples were fixed in neutral-buffered formalin and paraffin-embedded as previously described (Kinders et al., Clin Cancer Res 2010; 16(22):5447-57). Animal care was provided in accordance with the procedures outlined in the “Guide for Care and Use of Laboratory Animals” (National Research Council; 1996; National Academy Press; Washington, D.C.), and all studies were conducted under an approved Animal Care and Use Committee protocol. […]
Quantitative Marker Analysis: The DEFINIENS TISSUE STUDIO® (Version 2.0.3; Build 2057) software program was used for analysis of foci count/nucleus. For the analysis, fields were scored first for the number of nuclei and then individual counts of the number of foci count/per nucleus were performed. […]

[2] = test system: ATR phosphorylation at pT1989; test: ATR-pT1989 IFA on FFPE pellets of drug-treated cells; assay type: cell-based, human
Protocol: Formalin fixed paraffin embedded (FFPE) pellets were generated using cells expressing WT ATR (HT29, DLD-1 Parental) or mutated ATR (DLD-1 Seckel (Horizon)), with and without gemcitabine (SIGMA) treatment to induce ATR phosphorylation at pT1989 (Mol. Pharmacol. 2005, 68, 1636-1644). Cells were harvested by trypsinization, transferred into a sterile 50 ml conical centrifuge tubes with media containing 10% serum and pelleted at 1000×g for 5 minutes. Medium was replaced with fresh serum containing medium and centrifuged again at 1000×g, 5 minutes. All but 1 ml (approximately) of medium was removed and the pellet was re-suspended by flicking the tube. Suspended cells were transferred using a 2 ml pipette into a clean 1.5 ml conical Eppendorf tube. Cells were pelleted for 30 seconds at 8,000 rpm in an Eppendorf micro centrifuge. The supernatant was discarded leaving approximately 100-200 ul behind. The cell pellet was loosened by gently flicking the tube and Thrombin stock (8 ul of 1 unit/ul water, Sigma #T-7009) was added. The cells were mixed briefly by gently flicking the tube then held on ice for 2-5 minutes. Fibrinogen stock (5 ul of at 10 mg/ml water, Sigma #F-3879) was added, and the tube was incubated for 2-5 minutes at room temperature. Clotted cells were pelleted by a brief centrifuge for 20 seconds at 10K. […]

[3] = VE-821 with Top1 inhibitor (CPT or LMP-400)

CC[C@@]1(O)C(=O)OCc2c1cc1n(c2=O)Cc2cc3ccccc3nc2-1 [CPT]
phosphorylation of ATR (threonine 1989) (pT1989-ATR): delayed and best detectable after drug removal
phosphorylation of H2AX (γH2AX) (γH2AX): quickly induced the rapid phosphorylation
phosphorylation of Chk2 (threonine 68) (pT68-Chk2): quickly induced the rapid phosphorylation
phosphorylation of Chk1 (serine 345) (pS345-Chk1): quickly induced the rapid phosphorylation

COc1cc2c3c(n(CCCN4CCOCC4)c(=O)c2cc1OC)-c1cc2c(cc1C3=O)OCO2 [LMP-400]
effects on checkpoint phosphorylation relative to CPT (pT1989-ATR): more pronounced effects than CPT
phosphorylation of ATR (threonine 1989) (pT1989-ATR): delayed and best detectable after drug removal
phosphorylation of H2AX (γH2AX) (γH2AX): quickly induced the rapid phosphorylation
phosphorylation of Chk2 (threonine 68) (pT68-Chk2): quickly induced the rapid phosphorylation
phosphorylation of Chk1 (serine 345) (pS345-Chk1): quickly induced the rapid phosphorylation

CS(=O)(=O)c1ccc(-c2cnc(N)c(C(=O)Nc3ccccc3)n2)cc1 [VE-821]
phosphorylation of ATR (pT1989-ATR; [3]): inhibited the phosphorylation
γH2AX induction over time (γH2AX; [3]): strongly induced
Chk2 phosphorylation (pT68-Chk2; [3]): without reducing Chk2 phosphorylation
phosphorylation of Chk1 (pS345-Chk1; [3]): inhibited the phosphorylation
phospho-ATR (pT1989) level by Western blot compared to gemcitabine alone (phospho-ATR (pT1989); 1 uM VE-821 combined with 150 nM gemcitabine, 4 hours, HT-29 and LoVo): reduced
phospho-ATR (pT1989) level by Western blot compared to vehicle (phospho-ATR (pT1989); 1 uM alone, 4 hours, HT-29 and LoVo): did not affect

N.N.[Cl][Pt][Cl] [cisplatin]
ATR foci in treated samples compared to vehicle [1]: increase in ATR foci

Nc1ccn([C@@H]2O[C@H](CO)[C@@H](O)C2(F)F)c(=O)n1 [gemcitabine]
signal intensity for pT1989 staining compared to untreated cells ([2]; FFPE HT29, DLD-1 cells): higher signal intensity
signal intensity for pT1989 staining compared to untreated cells ([2]; HT29 cells, 150 nM, 4 hrs or 24 hrs): higher signal intensity
phospho-ATR (pT1989) level by Western blot (phospho-ATR (pT1989); 150 nM, 4 hours, HT-29 and LoVo): increase
pT1989-ATR level by Western blot (phospho-ATR (pT1989); 4 hours, parental DLD-1 cells): increase
phospho-ATR (pT1989) level by Western blot (phospho-ATR (pT1989); gemcitabine treatment, HT-29, LoVo and DLD-1 lysates): increase
